Data as given in patent US5728704A, “Substituted pyridmidines for control of diabetic complications” (Pfizer Inc., priority 1995, dated 1998).

Assays:
[1] = tested on: sciatic nerve fructose and sorbitol; assay: sciatic nerve fructose and sorbitol in streptozocin-diabetic rats after a single oral dose; assay type: in vivo, rat (male Sprague-Dawley); settings: single oral dose 10, 50, 100 or 300 mg/kg, 4-6 hours after dosing (FIG. 4)
Description: (§1) Male Sprague-Dawley rats (350-400 g) were used for these experiments. Diabetes was induced in some of the rats by a tail vein injection of streptozocin, 85 mg/kg. Twenty-four hours later, 4 groups of diabetic rats were given a single dose of 4-[4-(N,N-dimethylsulfamoyl)-piperazino]-2-methylpyrimidine (10, 50, 100, or 300 mg/kg) by oral gavage. Animals were sacrificed 4-6 hours after dosing and blood and sciatic nerves were harvested. Tissues and cells were extracted with 6% perchloric acid.
(§2) Sorbitol in erythrocytes and nerves was measured by a modification of the method of R. S. Clements et al. (Science, 166: 1007-8, 1969). […] After incubation for 30 minutes at room temperature, sample fluorescence was determined on a fluorescence spectrophotometer with excitation at 366 nm and emission at 452 nm. After subtracting appropriate blanks, the amount of sorbitol in each sample was determined from a linear regression of sorbitol standards processed in the same manner as the tissue extracts.
(§3) Fructose was determined by a modification of the method described by M. Ameyama, Methods in Enzymology, 89: 20-25 (1982). […] After incubation for 60 minnutes at room temperature, sample fluorescence was determined on a fluorescence spectrophotometer with excitation at 560 nm and emission at 580 nm. […]

sorbitol dehydrogenase [2] = target: T1, sorbitol dehydrogenase (Ovis aries, UniProt P07846); assay: in vitro inhibition of sorbitol dehydrogenase by sera from dosed rats; assay type: biochemical; settings: sera from rats dosed with the compound (FIG. 5)
T1 sequence (P07846 1-354): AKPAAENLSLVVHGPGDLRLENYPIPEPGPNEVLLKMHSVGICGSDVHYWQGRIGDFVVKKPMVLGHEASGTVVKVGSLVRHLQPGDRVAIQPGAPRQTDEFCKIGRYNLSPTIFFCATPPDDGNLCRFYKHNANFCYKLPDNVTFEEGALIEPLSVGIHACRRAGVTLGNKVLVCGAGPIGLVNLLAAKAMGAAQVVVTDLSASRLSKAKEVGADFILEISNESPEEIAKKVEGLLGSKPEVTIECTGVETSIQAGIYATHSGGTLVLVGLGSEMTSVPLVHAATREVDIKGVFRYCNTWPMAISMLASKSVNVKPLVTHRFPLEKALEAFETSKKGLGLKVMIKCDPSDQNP
Description: as §1
(§4) SDH activity was measured by a modification of the method described by U. Gerlach, Methodology of Enzymatic Analyses, edited by H. U. Bergmeyer, 3, 112-117 (1983). Aliquots of sera or urine were added to the assay system, which had final concentrations of reagents of 0.1M potassium phosphate buffer, pH 7.4, 5 mM NAD, 20 mM sorbitol, and 0.7 units/ml of sorbitol dehydrogenase. After incubation for 10 minutes at room temperature, the average change in sample absorbance was determined at 340 nm. SDH activity was presented as milliOD340 units/minute (OD340 =optical density at 340 nm).

[3] = tested on: erythrocyte (red blood cell) fructose and sorbitol; assay: erythrocyte fructose and sorbitol in streptozocin-diabetic rats after a single oral dose; assay type: in vivo, rat (male Sprague-Dawley); settings: single oral dose 10, 50, 100 or 300 mg/kg
Description: as §1, §2, §3

sorbitol dehydrogenase [4] = target: T1, sorbitol dehydrogenase; assay: in vitro inhibition of sorbitol dehydrogenase by urine from dosed rats; assay type: biochemical
Description: as §4

sorbitol dehydrogenase [5] = target: T1, sorbitol dehydrogenase; assay: inhibition of sorbitol dehydrogenase in vitro (direct test); assay type: biochemical; settings: tested directly on sorbitol dehydrogenase in vitro
Description: as §4
The IC50 values indicate the concentration at which fifty percent inhibition of sorbitol dehydrogenase in vitro was observed.

inhibition of SDH with as little as 0.5 μl of urine (sorbitol dehydrogenase [4]; 0.5 μl of urine of dosed animals (FIG. 6)): strong inhibition
IC50 (sorbitol dehydrogenase [5]): 500 µM
Compound: Cc1nccc(N2CCN(S(=O)(=O)N(C)C)CC2)n1 [Compound 1, 4-[4-(N,N-dimethylsulfamoyl)-piperazino]-2-methylpyrimidine]
sciatic nerve sorbitol [1]: increase in sorbitol
inhibition of SDH in vitro by sera from dosed rats (sorbitol dehydrogenase [2]): potently inhibited SDH in vitro in a dose dependent manner
erythrocyte (RBC) fructose ([3]; 4-6 hours after dosing (FIG. 1)): dose dependently lowered
erythrocyte sorbitol ([3]; 4-6 hours after dosing (FIG. 2)): dose dependently raised
SDH inhibitory activity of urine compared with sera (sorbitol dehydrogenase [4]; urine (FIG. 6) compared with sera (FIG. 5)): even more potent source of SDH inhibitory activity
inhibition of SDH in vitro by urine of dosed animals (sorbitol dehydrogenase [4]; urine of animals dosed with the compound (FIG. 6)): potently inhibited SDH in vitro in a dose dependent manner
